Experimental data from patent US5135955A, “Propanamine derivatives” (Eli Lilly and Company, priority 1989, dated 1992).
Counter-ions that a name gives are not always drawn.

What was measured:
[1] = system: thromboplastin clotting time in human plasma; test: prothrombin time test (thromboplastin clotting time in human plasma); assay type: biochemical; conditions: 37° C., human plasma
Method: Briefly, to 0.1 ml of each of human plasma, normal saline and thromboplastin was added 0.03 ml of the test compound of the present invention (2 mg/ml in 50 percent methanol). The clotting time was measured at 37° C. with a Fibrometer.
^a Expressed in seconds
^b Concentration of compound tested in micrograms per milliliter of […]

[2] = system: Candida albicans A26; test: in vitro antifungal activity, Candida albicans (MIC); assay type: cell-based; conditions: 35° C., 48 hours, RPMI 1640 plus 10% fetal calf serum, 95-100% inhibition of growth, read-out: minimum inhibitory concentration (MIC), C.a.
Method: (§1) The antifungal activity was assayed in vitro against Candida abicans A26, Trichophyton mentagrophytes CDC27, and Aspergillus flavus M152. The inocula, previously frozen under liquid nitrogen in a lactose, glycerol and water solution, were standardized by counting spores with a hemocytometer. Final concentrations (C. albicans, 1×10^5 cells/m; T. mentagrophytes, 1×10^6 cells/ml; A. flavus, 1×10^5 cells/ml) in RPMI 1640 plus 10% fetal calf serum were added to each of the 96 wells of a microtiter plate (100 μl/well).The compounds to be tested were solubilized in either water or ethanol and added to the microtiter wells in serial dilutions to give final concentrations in the range 0.039-20 μg/ml. The plates were incubated at 35° C. for 48 hours. The minimum inhibitory concentration (MIC) values were determined as the highest dilution showing 95-100% inhibition of growth.
(§2) ^a Minimum inhibitory concentration expressed in μg/ml
^b C.a. means Candida albicans A26

[3] = system: Aspergillus flavus M152; test: in vitro antifungal activity, Aspergillus flavus (MIC); assay type: cell-based; conditions: 35° C., 48 hours, RPMI 1640 plus 10% fetal calf serum, 95-100% inhibition of growth, read-out: minimum inhibitory concentration (MIC), A.f.
Method: as §1, §2
^c A.f. means Aspergillus flavus M152

[4] = system: Trichophyton mentagrophytes CDC27; test: in vitro antifungal activity, Trichophyton mentagrophytes (MIC); assay type: cell-based; conditions: 35° C., 48 hours, RPMI 1640 plus 10% fetal calf serum, 95-100% inhibition of growth, read-out: minimum inhibitory concentration (MIC), T.m.
Method: as §1, §2
^d T.m. means Trichophyton mentagrophytes CDC27

[5] = solubility in methanol; assay type: physicochemical
[6] = 22 micrograms per milliliter of plasma
[7] = 45 micrograms per milliliter of plasma
[8] = 90 micrograms per milliliter of plasma
[9] = 180 micrograms per milliliter of plasma

MIC [2] | MIC [3] | MIC [4] | solubility in methanol [5] | SMILES | plasma prothrombin time ([1]; 11 micrograms per milliliter of plasma) | plasma prothrombin time [1, 6] | plasma prothrombin time [1, 7] | plasma prothrombin time [1, 8] | plasma prothrombin time [1, 9]
10 µg/mL | 10 µg/mL | 10 µg/mL | – | CCCCCCOc1ccc(CC(CN)c2ccccc2)cc1 (stereo not drawn) [Example 1, 4-(Hexyloxy)-β-phenylbenzenepropanamine] | 32 s | 43 s | 91 s | > 300 s | > 300 s
20 µg/mL | 10 µg/mL | 20 µg/mL | – | CCCCCCCCOc1ccc(CC(CN)c2ccccc2)cc1 (stereo not drawn) [Example 2, 4-(Octyloxy)-β-phenylbenzenepropanamine] | – | 38 s | 79 s | > 300 s | > 300 s
10 µg/mL | 5 µg/mL | 5 µg/mL | – | CCCCCOc1ccc(CC(CN)c2ccccc2)cc1.Cl (stereo not drawn) [Example 4, 4-(Pentyloxy)-β-phenylbenzenepropanamine hydrochloride] | – | – | 37 s | 91 s | > 300 s
10 µg/mL | 5 µg/mL | 5 µg/mL | – | CCCCOc1ccc(CC(CN)c2ccccc2)cc1.Cl (stereo not drawn) [Example 6, 4-(Butyloxy)-β-phenylbenzenepropanamine hydrochloride] | – | 20 s | 26 s | 46 s | 83 s
20 µg/mL | 10 µg/mL | 10 µg/mL | – | CCCCCCOc1ccc(CC(CN)c2ccc(OC)c(OC)c2)cc1 (stereo not drawn) [Example 16, .varies.-(Hexyloxy)-β-(3,4-dimethoxy)phenylbenzenepropanamine hydrochloride] | – | 27 s | 57 s | 81 s | 235 s
– | – | – | insoluble | CCCCCCCOc1ccc(CC(CN)c2ccc(OC)cc2)cc1 (stereo not drawn) [Example 21, 4-(Heptyloxy)-β-(4-methoxy)phenylbenzenepropanamine] | – | – | – | – | –
20 µg/mL | 10 µg/mL | 10 µg/mL | – | Cl.NCC(Cc1cccc2ccccc12)c1ccccc1 (stereo not drawn) [Example 22, β-Phenyl-1-naphthalenepropanamine hydrochloride] | – | – | – | – | > 300 s
10 µg/mL | 5 µg/mL | 10 µg/mL | – | CCCCCCOc1ccc(CC(CN)c2ccc(F)cc2)cc1 (stereo not drawn) [Example 26, 4(Hexyloxy)-β-(4-fluorophenyl)benzenepropanamine] | – | – | 29 s | 67 s | 500 s
5 µg/mL | > 20 µg/mL | > 20 µg/mL | – | CC(CCc1ccc(OCCC2CCCCC2)cc1)NC1CCCC(C(F)(F)F)C1 (stereo not drawn) [Example 39, 4-(2-Cyclohexylethoxy)-α-methyl-N-[3-(trifluoromethyl)-cyclohexyl]benzenepropanamine hydrochloride] | – | – | 90 s | – | –
20 µg/mL | 20 µg/mL | > 20 µg/mL | – | CCCS(=O)(=O)Oc1ccc(CCC(C)N(C)C)cc1 (centres unmarked) [Example 67] | – | – | – | – | –
20 µg/mL | 10 µg/mL | 10 µg/mL | – | COc1ccc(CC(c2ccccc2)C(C)N)cc1OCC1CCCCC1 (stereo not drawn) [Example 71, 3-(Cyclohexylmethoxy)-4-methoxy-α-methyl-β-phenylbenzenepropanamine hydrochloride] | – | – | – | – | –
10 µg/mL | 10 µg/mL | 5 µg/mL | – | CCCCCCOc1ccc(CC(c2ccc(OC)cc2)C(C)N)cc1 (stereo not drawn) [Example 72, 4-(Hexyloxy)-β-4-methoxyphenyl-αmethylbenzenepropanamine hydrochloride] | – | – | – | – | –
0.156 µg/mL | 10 µg/mL | 0.312 µg/mL | – | CC(CCc1ccc(OCc2ccccc2)cc1)N(C)C (stereo not drawn) [Example 84, N,N,α-Trimethyl-4-(phenylmethoxy)benzene propanamine hydrochloride] | – | – | – | – | –

SMILES | MIC [2] | MIC [3] | MIC [4] | solubility in methanol [5] | plasma prothrombin time ([1]; 11 micrograms per milliliter of plasma) | plasma prothrombin time [1, 6] | plasma prothrombin time [1, 7] | plasma prothrombin time [1, 8] | plasma prothrombin time [1, 9]
CCCCOc1ccc(CCC(C)N(C)C)cc1 (stereo not drawn) [Example 41, 4-Butoxy-N,N,α-trimethylbenzenepropanamine hydrochloride] | 0.156 µg/mL | 1.25 µg/mL | 0.078 µg/mL | – | – | – | 21 s | 24 s | 41 s
CCCCOc1ccc(CCC(C)N(C)CC)cc1 (stereo not drawn) [Example 68, 4-Butoxy-N-ethyl-N,α-dimethylbenzenepropanamine hydrochloride] | 0.625 µg/mL | 0.625 µg/mL | 1.25 µg/mL | – | – | – | – | – | –
CCCCOc1ccc(CCC(C)N2CC(C)OC(C)C2)cc1 (centres unmarked) [Example 69, 4-[3-(4-Butoxyphenyl)-1-methylpropyl]-2,6-dimethylmorpholine hydrochloride] | > 20 µg/mL | > 20 µg/mL | 1.25 µg/mL | – | – | – | – | – | –
CCCCOc1ccc(CCC(CC)N(C)C)cc1 (stereo not drawn) [Example 70, 4-Butoxy-α-ethyl-N,N-dimethylbenzenepropanamine hydrochloride] | 0.156 µg/mL | 10 µg/mL | 0.156 µg/mL | – | – | – | – | – | –
